# In patent publication US10501518B2 (priority 2013, dated 2019):
# Starred links: 1 amine or outer side, 2 acyl side, 3 side chain; linkers in the order of their positions; H or OH if unused. Non-standard residues stand in square brackets, D forms with d. Residues, ends and D or L forms follow the SMILES beside them. *: point of attachment. NH(1S,2S-2-CONH2-cPent) = NC(=O)[C@H]1CCC[C@@H]1N*; X12 = O=C([C@H]1CCC[C@@H]1N[*:1])[*:2]; X13 = O=C([C@H]1CNC[C@@H]1N[*:1])[*:2]; ACPC(1S,2S) = N[C@H]1CCC[C@@H]1C(=O)*
# How the values were obtained:
# WT human PTHR-1 = target: T1, WT human PTHR-1 (Homo sapiens, UniProt Q03431); assay: cAMP GloSensor dose-response in GP-2.3 cells expressing human PTHR-1; assay type: cell-based
# T1 construct: bioactivity of the resulting compound in full-length hPTHR-1 and a truncated version; expressed in transfected cells
# T1 sequence (Q03431 27-593): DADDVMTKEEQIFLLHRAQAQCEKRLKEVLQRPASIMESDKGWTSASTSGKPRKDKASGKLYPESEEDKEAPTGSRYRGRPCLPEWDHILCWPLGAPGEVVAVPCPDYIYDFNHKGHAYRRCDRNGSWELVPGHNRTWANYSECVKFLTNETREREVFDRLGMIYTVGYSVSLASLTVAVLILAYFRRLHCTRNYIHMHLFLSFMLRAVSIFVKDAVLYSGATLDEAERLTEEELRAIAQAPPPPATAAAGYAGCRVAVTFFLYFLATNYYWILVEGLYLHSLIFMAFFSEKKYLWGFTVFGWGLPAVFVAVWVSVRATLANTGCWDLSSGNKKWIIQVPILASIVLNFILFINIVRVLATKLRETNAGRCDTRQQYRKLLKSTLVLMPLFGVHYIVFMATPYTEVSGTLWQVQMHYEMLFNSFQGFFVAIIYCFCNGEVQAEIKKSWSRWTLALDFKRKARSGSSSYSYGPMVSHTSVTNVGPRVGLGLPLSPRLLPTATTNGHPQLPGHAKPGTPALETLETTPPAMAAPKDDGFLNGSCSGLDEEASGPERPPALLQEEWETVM
# Experimental: FIGS. 8A, 8B, and 8C constitute a series of graphs depicting cAMP responses in GP-2.3 cells expressing wild-type human parathyroid hormone receptor 1 (PTHR-1-WT). […] Data are means (±SEM) of n>4 experiments, each performed in duplicate.
# (§1) For cAMP dose-response assays, monolayers of confluent HEK 293 cells were pre-incubated with buffer containing d-luciferin (0.5 mM) in 96 well plates at room temperature until a stable baseline level of luminescence was established (30 min). Varying concentrations of agonist were then added, and the time course of luminescence response was recorded using a Perkin Elmer plate reader following α/β-peptide addition.
# WT rat PTHR-1 = target: T2, WT rat PTHR-1 (Rattus norvegicus, UniProt P25961); assay: cAMP GloSensor dose-response in GR-35 cells expressing rat PTHR-1; assay type: cell-based; conditions: Table 7; GR-35 cells, 12-16 minutes after ligand addition; mean ± SEM
# T2 construct: expressed in transfected cells
# T2 sequence (P25961 27-591): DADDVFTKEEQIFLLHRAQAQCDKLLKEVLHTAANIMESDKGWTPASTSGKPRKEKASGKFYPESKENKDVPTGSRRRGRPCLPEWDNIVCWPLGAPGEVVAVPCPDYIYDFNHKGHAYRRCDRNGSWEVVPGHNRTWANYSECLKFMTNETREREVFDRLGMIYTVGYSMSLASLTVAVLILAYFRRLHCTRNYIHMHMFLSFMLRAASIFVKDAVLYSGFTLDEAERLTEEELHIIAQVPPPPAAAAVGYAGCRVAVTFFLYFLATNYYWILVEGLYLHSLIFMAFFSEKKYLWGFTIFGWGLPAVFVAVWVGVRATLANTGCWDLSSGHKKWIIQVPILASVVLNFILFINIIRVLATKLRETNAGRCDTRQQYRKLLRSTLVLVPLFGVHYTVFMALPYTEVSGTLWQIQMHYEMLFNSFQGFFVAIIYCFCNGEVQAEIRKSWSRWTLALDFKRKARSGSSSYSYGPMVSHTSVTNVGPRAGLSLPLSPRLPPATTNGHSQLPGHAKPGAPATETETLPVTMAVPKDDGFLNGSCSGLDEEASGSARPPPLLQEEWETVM
# Experimental: FIGS. 9A, 9B, and 9C constitute a series of graphs depicting cAMP responses in GR-35 cells expressing rat PTHR-1-WT. […] Data are means (±SEM) of n>4 experiments, each performed in duplicate.
# as §1
# R^0 form of rat PTHR-1 = target: T3, R^0 form of rat PTHR-1 (Rattus norvegicus, UniProt P25961); assay: Radio-ligand competition binding to R^0 form of rat PTHR-1; conditions: Table 5; rat PTHR-1; mean ± SEM; read-out: R^0 -log (IC50) (converted)
# T3 construct: expressed in transfected cells; host or cells: COS-7
# T3 sequence (P25961 27-591): T2 sequence (P25961 27-591)
# From the text: Data are means (±SEM) of n≥4 experiments, each performed in duplicate.
# PTH2R/PTH1R = assay: cAMP response selectivity between PTH2R and PTH1R; assay type: cell-based; conditions: most selective; for cAMP response PTH2R/PTH1R: Table 16
# From the text: Selected analogs containing beta-amino acid substitutions selectively signal through one or the other of the two receptors. Without being bound to any underling biological phenomenon or mechanism, PTHR-2 likely serves an alternative function to PTHR-1 as it is highly expressed in the central nervous system. In contrast, PTHR-1 is highly expressed in bone and kidney, but not in the CNS. The analogs disclosed herein are thus useful as therapeutic compounds that a specific agonists or antagonists of PTHR-1 and PTHR-2.
# PTHR = target: T4, PTHR (Homo sapiens, UniProt Q03431); assay: cAMP induction potency, N-terminal modifications and cyclic constraints (Tables 9, 10, 13); assay type: cell-based; conditions: Table 9
# T4 construct: expressed in transfected cells
# T4 sequence (Q03431 27-593): T1 sequence (Q03431 27-593)
"EC50 (WT human PTHR-1; Table 1, GP-2.3 cells, read-out: cAMP (hPTHR-1) EC50) [nM]","cAMP (hPTHR-1) Max (WT human PTHR-1; Table 1, luminescence counts per second relative to PTH(1-34), 12-16 minutes after ligand addition)","agonist activity at hPTHR-1 (cAMP response), in words (WT human PTHR-1; maximum cAMP response compared with PTH(1-34))",IC50 (R^0 form of rat PTHR-1) [nM],Fold PTH (PTHR),Molecule,"Max (WT human PTHR-1; Table 6, GP-2.3 cells, 12-16 minutes after ligand addition, mean ± SEM)",Max (WT rat PTHR-1),cAMP response PTH2R/PTH1R (PTH2R/PTH1R),cAMP response PTH1R/PTH2R (PTH2R/PTH1R; Table 17)
0.58,1.03,full agonists of hPTHR-1,4.57,,CC[C@H](C)[C@H](NC(=O)[C@H](CCC(=O)O)NC(=O)[C@H](CO)NC(=O)[C@@H](NC(=O)[C@@H](N)CO)C(C)C)C(=O)N[C@@H](CCC(N)=O)C(=O)N[C@@H](CC(C)C)C(=O)N[C@@H](CCSC)C(=O)N[C@@H](Cc1c[nH]cn1)C(=O)N[C@@H](CC(N)=O)C(=O)N[C@@H](CC(C)C)C(=O)NCC(=O)N[C@@H](CCCCN)C(=O)N[C@@H](Cc1c[nH]cn1)C(=O)N[C@@H](CC(C)C)C(=O)N[C@@H](CC(N)=O)C(=O)N[C@@H](CO)C(=O)N[C@@H](CCSC)C(=O)N[C@@H](CCC(=O)O)C(=O)N[C@@H](CCCNC(=N)N)C(=O)N[C@H](C(=O)N[C@@H](CCC(=O)O)C(=O)N[C@@H](Cc1c[nH]c2ccccc12)C(=O)N[C@@H](CC(C)C)C(=O)N[C@@H](CCCNC(=N)N)CC(=O)N[C@@H](CCCCN)C(=O)N[C@@H](CCCCN)C(=O)N[C@@H](CC(C)C)C(=O)N[C@@H](CCC(N)=O)CC(=O)N[C@@H](CC(=O)O)C(=O)N[C@H](C(=O)N[C@@H](Cc1c[nH]cn1)C(=O)N[C@@H](CC(N)=O)CC(=O)N[C@@H](Cc1ccccc1)C(N)=O)C(C)C)C(C)C [C3],223 ± 14 luminescence counts per second × 10^−3,68 ± 77 luminescence counts per second × 10−3,,
,,,,,"hPTHrP(1-36): parathyroid hormone-related protein fragment, comparator in the PTH2R/PTH1R cAMP response tables",,,0.04,27
,,,,234,"CSCC[C@H](NC(=O)[C@H]1CCC[C@@H]1NC(=O)[C@H](CCC(N)=O)NC(=O)[C@H]1CCC[C@@H]1NC(=O)[C@H](CCC(=O)O)NC(=O)[C@H](CO)NC(=O)[C@@H](NC(=O)[C@H]1CCC[C@@H]1N)C(C)C)C(=O)N[C@@H](Cc1c[nH]cn1)C(=O)N[C@@H](CC(N)=O)C(=O)N[C@@H](CC(C)C)C(=O)NCC(=O)N[C@@H](CCCCN)C(=O)N[C@H]1CCC[C@@H]1C(=O)N[C@@H](CC(C)C)C(=O)N[C@@H](CC(N)=O)C(=O)N[C@@H](CO)C(=O)N[C@H]1CCC[C@@H]1C(=O)N[C@@H](CCC(=O)O)C(=O)N[C@@H](CCCNC(=N)N)C(=O)N[C@H](C(=O)N[C@H]1CNC[C@@H]1C(=O)N[C@@H](Cc1c[nH]c2ccccc12)C(=O)N[C@@H](CC(C)C)C(=O)N[C@@H](CCCNC(=N)N)C(=O)N[C@H]1CNC[C@@H]1C(=O)N[C@@H](CCCCN)C(=O)N[C@@H](CC(C)C)C(=O)N[C@@H](CCC(N)=O)C(=O)N[C@H]1CCC[C@@H]1C(=O)N[C@H](C(=O)N[C@@H](Cc1c[nH]cn1)C(=O)N[C@@H](CC(N)=O)C(=O)N[C@H]1CCC[C@@H]1C(N)=O)C(C)C)C(C)C [FcycD6_ACPC(1,5,7), XVSEXQXMHNLGKXLNSXERVZWLRZKLQXVHNX-NH2] ({ACPC(1S,2S)}-VSE[X12]Q[X12]MHNLGK[X12]LNS[X12]ERV[X13]WLR[X13]KLQ[X12]VHN-{NH(1S,2S-2-CONH2-cPent)}; N-terminus assumed)",,,45,
